# According to ChEMBL document CHEMBL1129670, “Synthesis and structure-activity relationships of N-propyl-N-(4-pyridinyl)-1H-indol-1-amine (besipirdine) and related analogs as potential therapeutic agents for Alzheimer's disease” (J Med Chem, 1996):
# Legend:
# [1] = target: Muscarinic acetylcholine receptor; type: cell membranes, Membrane
# Description: Inhibition of [3H]quinuclidinyl benzilate (QNB) binding from rat forebrain membranes in the absence of Zn
# Mus musculus [2] = assay: Antagonistic activity against Scopolamine induced behavioral deficits in mice at dose 0.04 mg/kg sc; type: functional; settings: route subcutaneous
# [3] = target: T1, Adrenergic receptor alpha-2 (Rattus norvegicus, UniProt P22086+P19328+P22909); assay: Inhibitory activity against [3H]clonidine binding to Alpha-2 adrenergic receptor in rat cortex
# T1 sequence (P22086 whole entry): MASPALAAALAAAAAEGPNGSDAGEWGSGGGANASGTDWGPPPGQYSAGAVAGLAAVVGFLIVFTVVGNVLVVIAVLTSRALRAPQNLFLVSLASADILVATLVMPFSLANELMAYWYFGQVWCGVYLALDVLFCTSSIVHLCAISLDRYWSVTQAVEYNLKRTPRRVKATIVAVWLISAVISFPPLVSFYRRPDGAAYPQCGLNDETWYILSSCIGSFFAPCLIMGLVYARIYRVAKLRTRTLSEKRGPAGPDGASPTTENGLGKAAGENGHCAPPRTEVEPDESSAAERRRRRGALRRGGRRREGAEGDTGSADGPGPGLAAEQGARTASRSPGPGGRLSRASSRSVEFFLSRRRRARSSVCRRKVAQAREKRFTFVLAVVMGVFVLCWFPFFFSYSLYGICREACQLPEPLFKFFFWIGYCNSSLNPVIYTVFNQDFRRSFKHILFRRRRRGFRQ
# T1 sequence (P19328 whole entry): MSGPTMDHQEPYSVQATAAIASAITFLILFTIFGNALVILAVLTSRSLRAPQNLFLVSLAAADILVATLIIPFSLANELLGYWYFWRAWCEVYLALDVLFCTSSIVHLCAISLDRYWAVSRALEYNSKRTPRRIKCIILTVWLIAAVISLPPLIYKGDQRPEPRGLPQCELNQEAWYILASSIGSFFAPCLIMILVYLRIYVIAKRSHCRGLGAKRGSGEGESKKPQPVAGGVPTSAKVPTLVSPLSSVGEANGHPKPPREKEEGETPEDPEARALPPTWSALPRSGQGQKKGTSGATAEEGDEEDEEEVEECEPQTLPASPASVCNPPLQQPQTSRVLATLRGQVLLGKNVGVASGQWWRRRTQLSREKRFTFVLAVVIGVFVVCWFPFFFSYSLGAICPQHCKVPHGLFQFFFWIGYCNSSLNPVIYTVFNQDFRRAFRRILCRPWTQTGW
# T1 sequence (P22909 whole entry): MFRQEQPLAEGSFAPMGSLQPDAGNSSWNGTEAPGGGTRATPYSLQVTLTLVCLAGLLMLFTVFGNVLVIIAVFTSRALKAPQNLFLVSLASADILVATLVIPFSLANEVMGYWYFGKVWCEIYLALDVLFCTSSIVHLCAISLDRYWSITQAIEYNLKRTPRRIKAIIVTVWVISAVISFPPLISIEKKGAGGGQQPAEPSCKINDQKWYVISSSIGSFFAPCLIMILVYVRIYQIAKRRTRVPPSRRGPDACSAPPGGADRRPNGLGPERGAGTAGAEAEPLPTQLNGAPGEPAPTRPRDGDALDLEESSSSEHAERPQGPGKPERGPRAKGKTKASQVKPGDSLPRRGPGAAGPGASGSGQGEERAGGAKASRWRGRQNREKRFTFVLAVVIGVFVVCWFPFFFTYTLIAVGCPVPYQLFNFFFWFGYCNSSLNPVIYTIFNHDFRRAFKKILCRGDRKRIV
# Mus musculus [4] = species on record: Mus musculus; assay: Antagonistic activity against Scopolamine induced behavioral deficits in mice; 3/9; type: functional
# Mus musculus [5] = assay: Antagonistic activity against Scopolamine induced behavioral deficits in mice at dose 0.16 mg/kg sc; type: functional; settings: route subcutaneous
# Acetylcholinesterase = target: T2, Acetylcholinesterase (Rattus norvegicus, UniProt P37136); assay: Inhibitory activity against Acetylcholinesterase in rat striatum; type: tissue-based
# T2 sequence (P37136 whole entry): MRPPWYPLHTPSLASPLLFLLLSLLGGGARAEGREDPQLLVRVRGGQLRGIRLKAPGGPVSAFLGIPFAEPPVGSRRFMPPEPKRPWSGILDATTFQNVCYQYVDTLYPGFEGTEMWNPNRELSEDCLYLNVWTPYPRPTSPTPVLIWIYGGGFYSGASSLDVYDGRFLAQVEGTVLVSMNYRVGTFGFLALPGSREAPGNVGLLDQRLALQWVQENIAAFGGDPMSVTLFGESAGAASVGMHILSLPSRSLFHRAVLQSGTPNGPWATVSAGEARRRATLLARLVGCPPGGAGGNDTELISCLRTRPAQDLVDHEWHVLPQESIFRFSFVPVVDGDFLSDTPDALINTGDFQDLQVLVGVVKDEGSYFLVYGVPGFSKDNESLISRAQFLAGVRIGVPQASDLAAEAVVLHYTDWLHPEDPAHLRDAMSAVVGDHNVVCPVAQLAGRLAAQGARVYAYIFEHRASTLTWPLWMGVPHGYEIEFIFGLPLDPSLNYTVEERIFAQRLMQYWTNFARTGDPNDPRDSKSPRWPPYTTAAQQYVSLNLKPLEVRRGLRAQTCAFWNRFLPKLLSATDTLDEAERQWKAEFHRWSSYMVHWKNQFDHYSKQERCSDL
# Mus musculus [6] = species on record: Mus musculus; assay: Antagonistic activity against Scopolamine induced behavioral deficits in mice; 5/6; type: functional
# Mus musculus [7] = species on record: Mus musculus; settings: dose 0.63 mg/kg; route subcutaneous
# Description: Antagonistic activity against Scopolamine induced behavioral deficits in mice at dose 0.63 mg/kg sc
# [8] = target: Neuronal acetylcholine receptor; assay: Inhibitory activity against [3H]-NMCC binding to nicotinic receptors in rat cortex
# [9] = target: Kappa-type opioid receptor (Cavia porcellus, UniProt P41144); assay: Inhibitory activity against [3H]bremazocine binding to kappa opioid receptor in guinea pig cerebellum; type: tissue-based
# Rattus norvegicus = species on record: Rattus norvegicus; assay: Inhibitory activity against [3H]dopamine uptake in rat striatum; type: functional
# [10] = target: T3, Muscarinic acetylcholine receptor M1 (Rattus norvegicus, UniProt P08482); assay: Inhibitory activity against [3H]pirenzepine binding to muscarinic M1 receptor in rat cortex
# T3 sequence (P08482 whole entry): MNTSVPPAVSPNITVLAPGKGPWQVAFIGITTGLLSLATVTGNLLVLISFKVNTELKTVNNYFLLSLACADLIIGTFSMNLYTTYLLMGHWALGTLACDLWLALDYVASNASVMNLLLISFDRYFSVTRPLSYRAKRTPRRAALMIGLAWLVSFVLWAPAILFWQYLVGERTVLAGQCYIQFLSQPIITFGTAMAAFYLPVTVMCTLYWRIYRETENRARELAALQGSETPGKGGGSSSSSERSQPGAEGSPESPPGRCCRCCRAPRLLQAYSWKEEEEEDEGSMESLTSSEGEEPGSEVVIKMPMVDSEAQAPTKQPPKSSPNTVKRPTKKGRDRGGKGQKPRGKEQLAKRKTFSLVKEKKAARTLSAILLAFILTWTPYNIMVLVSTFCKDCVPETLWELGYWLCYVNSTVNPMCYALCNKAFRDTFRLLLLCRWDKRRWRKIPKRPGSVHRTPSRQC
# [11] = target: Serotonin 2 (5-HT2) receptor (Rattus norvegicus, UniProt P30994+P08909+P14842); assay: Inhibitory activity against [3H]spiroperidol binding to 5-HT2 receptor in rat cortex
# Mu-type opioid receptor = Mu-type opioid receptor (Rattus norvegicus, UniProt P33535); assay: Inhibitory activity against [3H]DHM binding to mu opioid receptor in rat whole brain
# Sequence of Mu-type opioid receptor (P33535 whole entry): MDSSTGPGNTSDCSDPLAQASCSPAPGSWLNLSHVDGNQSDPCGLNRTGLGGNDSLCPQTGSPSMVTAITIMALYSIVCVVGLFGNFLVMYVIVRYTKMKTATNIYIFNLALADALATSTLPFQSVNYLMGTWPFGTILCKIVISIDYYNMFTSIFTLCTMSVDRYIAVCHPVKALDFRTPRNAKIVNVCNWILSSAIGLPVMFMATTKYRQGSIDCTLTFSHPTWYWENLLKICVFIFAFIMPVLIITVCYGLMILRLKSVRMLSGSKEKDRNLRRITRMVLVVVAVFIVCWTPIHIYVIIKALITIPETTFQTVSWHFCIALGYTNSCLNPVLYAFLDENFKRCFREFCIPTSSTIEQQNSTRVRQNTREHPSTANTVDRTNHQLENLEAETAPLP
# Sequence of Kappa-type opioid receptor (P41144 whole entry): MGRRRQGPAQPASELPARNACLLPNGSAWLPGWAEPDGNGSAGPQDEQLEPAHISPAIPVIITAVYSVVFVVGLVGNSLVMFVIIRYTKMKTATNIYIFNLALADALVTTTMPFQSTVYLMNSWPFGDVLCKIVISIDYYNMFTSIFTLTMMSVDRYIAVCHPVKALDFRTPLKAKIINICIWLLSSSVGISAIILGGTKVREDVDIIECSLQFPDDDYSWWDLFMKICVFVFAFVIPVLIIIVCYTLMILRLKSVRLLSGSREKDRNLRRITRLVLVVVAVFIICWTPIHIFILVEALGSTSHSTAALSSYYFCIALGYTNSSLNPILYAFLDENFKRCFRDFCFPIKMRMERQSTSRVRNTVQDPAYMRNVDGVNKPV
compound,measurement,setting,value
CN(c1ccncc1)n1ccc2ccccc21,IC50,[1],9000 nM
same,Response,Mus musculus [2],53%
same,IC50,[3],24 nM
same,Antagonism,Mus musculus [4],3
c1ccc2c(c1)ccn2Nc1ccncc1,IC50,[1],40000 nM
same,IC50,[3],8 nM
same,Antagonism,Mus musculus [4],3
same,Response,Mus musculus [5],23%
CCCN(c1ccncc1)n1ccc2ccccc21 [BESIPIRDINE],IC50,Acetylcholinesterase,> 100000 nM
same,IC50,[1],3000 nM
same,Response,Mus musculus [2],30%
same,IC50,[3],330 nM
same,Antagonism,Mus musculus [6],5
same,Response,Mus musculus [7],40%
same,IC50,[8],> 20000 nM
same,IC50,[9],> 10000 nM
same,Response,Mus musculus [5],27%
same,IC50,Rattus norvegicus,410 nM
same,IC50,[10],1300 nM
same,IC50,[11],> 20000 nM
same,IC50,Mu-type opioid receptor,> 1000 nM
